Experimental data published in patent publication US20190225557A1, “IMPROVED UREA-BASED C[…] SULPHUR AND METHOD FOR THE MANUFACTURE THEREOF” (YARA INT[…], priority 2016, published 2019).

How the values were obtained:
[1] = Accelerated storage stability of nBTPT on fertilizer granules (HPLC analysis of nBTPT content); assay type: physicochemical; settings: nBTPT formulations (500 ppm powder or Agrotain Ultra) applied onto urea comprising 9% elemental sulphur (samples B, C); 12 days at 70° C. in closed plastic container
Protocol: (§1) 1.2 kg of solid fertilizer material was added to a lab scale drum. In a next step, the nBTPT material was slowly added and subsequently followed, if applied, by an alkaline or alkaline-forming inorganic or organic compound. A residence time of 10 minutes was applied and the rotating speed of the drum was consequently the same in each experiment. In case a moisture-repellent coating was added, a nebulizer was used and, depending on the order of addition, the moisture-repellent coating was added before or after addition of the nBTPT material. Before use, the moisture-repellent coating was preheated to 80° C.
For some samples, an accelerated stability test was done after storing these samples at elevated temperatures: • Oven of 30° C., open to air • 70° C. in a closed plastic container
HPLC analysis of nBTPT is done as described in the procedure CEN 15688-2007.
This set of samples was stored at room temperature (20-25° C.) in bags and at elevated temperature (30° C. and 70° C., accelerated stability test).

[2] = assay type: physicochemical; settings: urea + 10.5% ES + 500 ppm nBTPT as Amiplus liquid (Exp. H-M); open pots in nissenhut; measured after 28 days (ranking given as after 14 days)
Protocol: as §1
Typically, a day/night cycle is generated in the nissenhut, with temperature fluctuations between 0 to 42° C. and fluctuations of relative humidity between 20 and 90%, which can be compared with real life storage in silos.
The samples were stored 28 days in open pots in nissenhut.
The samples were stored for 28 days in open pots in nissenhut.

| SMILES | nBTPT level after storage [1] [weight %] | effectivity of the stabilizers (ranking) on stability of nBTPT [2] |
| --- | --- | --- |
| CCCCNP(N)(N)=S [nBTPT, N-(n-butyl) thiophosphoric triamide] | 0 |  |
| [O]=[Ca] [CaO, calcium oxide] |  | CaCO3═MgO>CaO>ZnO>Et3N>no stabilizer |
| O=C([O-])[O-].[Ca+2] [CaCO3, calcium carbonate] |  | CaCO3═MgO>CaO>ZnO>Et3N>no stabilizer |
| [O]=[Mg] [MgO, magnesium oxide] |  | CaCO3═MgO>CaO>ZnO>Et3N>no stabilizer |
| [O]=[Zn] [ZnO, zinc oxide] |  | CaCO3═MgO>CaO>ZnO>Et3N>no stabilizer |
